Experiments:
Assay in all cases: relative viability (nuclei count vs DMSO), 5 days (fraction); higher = more cells survive
[1] = compound: CC1=C(C=CC(=C1)[N+](=O)[O-])NS(=O)(=O)C2=C(C=CC(=C2)Cl)Cl [FH535] + Cc1cc(Nc2cc(N3CCN(C)CC3)nc(Sc3ccc(NC(=O)C4CC4)cc3)n2)n[nH]1 [Tozasertib] (partner 0.1 µM)
Method in brief: (§1)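 One day after seeding in 1536-well plates, lung cancer cell lines were dosed by pin tool. Dosing was either single-drug or a fixed anchor-drug dose plus five library-drug doses (not always all listed) in √10 steps. After 5 days, nuclei were stained in one fix-and-stain step and counted on 4× images, and relative viability is the nuclei count of treated wells over that of vehicle wells, given as the median of duplicate plates.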

[2] = compound: CC1=C(C=CC(=C1)[N+](=O)[O-])NS(=O)(=O)C2=C(C=CC(=C2)Cl)Cl [FH535] + COc1cccc2cc(-c3nc([C@H]4CC[C@H](C(=O)O)CC4)n4ncnc(N)c34)[nH]c12 [OSI-027] (partner 0.5 µM)
Method in brief: as §1

[3] = compound: CC1=C(C=CC(=C1)[N+](=O)[O-])NS(=O)(=O)C2=C(C=CC(=C2)Cl)Cl [FH535] + CC1(C)CCC(c2ccc(Cl)cc2)=C(CN2CCN(c3ccc(C(=O)NS(=O)(=O)c4ccc(N[C@H](CCN5CCOCC5)CSc5ccccc5)c(S(=O)(=O)C(F)(F)F)c4)cc3)CC2)C1 [Navitoclax] (partner 0.5 µM)
Method in brief: as §1

[4] = compound: CC1=C(C=CC(=C1)[N+](=O)[O-])NS(=O)(=O)C2=C(C=CC(=C2)Cl)Cl [FH535] + O=C(c1cc(Cc2n[nH]c(=O)c3ccccc23)ccc1F)N1CCN(C(=O)C2CC2)CC1 [Olaparib] (partner 8 µM)
Method in brief: as §1

[5] = compound: CC1=C(C=CC(=C1)[N+](=O)[O-])NS(=O)(=O)C2=C(C=CC(=C2)Cl)Cl [FH535] + CC(=O)Nc1cccc(-n2c(=O)n(C3CC3)c(=O)c3c(Nc4ccc(I)cc4F)n(C)c(=O)c(C)c32)c1 [Trametinib] (partner 0.02 µM)
Method in brief: as §1

Row | Cell Line | relative viability ([1]; first compound 0.04 µM) | relative viability ([1]; first compound 0.1265 µM) | relative viability ([1]; first compound 0.4 µM) | relative viability ([1]; first compound 1.265 µM) | relative viability ([2]; first compound 0.04 µM) | relative viability ([2]; first compound 0.1265 µM) | relative viability ([2]; first compound 0.4 µM) | relative viability ([2]; first compound 1.265 µM) | relative viability ([3]; first compound 0.04 µM) | relative viability ([3]; first compound 0.1265 µM) | relative viability ([3]; first compound 0.4 µM) | relative viability ([3]; first compound 1.265 µM) | relative viability ([4]; first compound 0.04 µM) | relative viability ([4]; first compound 0.1265 µM) | relative viability ([4]; first compound 0.4 µM) | relative viability ([4]; first compound 1.265 µM) | relative viability ([5]; first compound 0.04 µM) | relative viability ([5]; first compound 0.1265 µM) | relative viability ([5]; first compound 0.4 µM) | relative viability ([5]; first compound 1.265 µM)
1 | ChaGo-K-1 | 0.225 | 0.236 | 0.216 | 0.202 | 0.479 | 0.596 | 0.507 | 0.432 | 0.96 | 1.35 | 1.04 | 0.636 | 0.384 | 0.404 | 0.403 | 0.286 | 0.871 | 0.896 | 0.742 | 0.503
2 | EKVX | 0.405 | 0.402 | 0.452 | 0.333 | 0.676 | 0.778 | 0.618 | 0.618 | 0.976 | 0.849 | 0.924 | 0.789 | 0.737 | 0.906 | 0.903 | 0.762 | 0.319 | 0.391 | 0.292 | 0.293
3 | EMC-BAC-2 | 0.289 | 0.312 | 0.306 | 0.254 | 0.339 | 0.402 | 0.395 | 0.364 | 1.17 | 1.19 | 1.2 | 1.02 | 0.445 | 0.467 | 0.46 | 0.442 | 0.804 | 0.9 | 0.869 | 0.892
4 | EPLC-272H | 0.148 | 0.249 | 0.194 | 0.214 | 0.27 | 0.296 | 0.279 | 0.238 | 1.04 | 1.22 | 1.07 | 0.926 | 0.766 | 0.92 | 0.849 | 0.636 | 0.272 | 0.296 | 0.299 | 0.262
5 | H3255 | 0.62 | 0.716 | 0.659 | 0.452 | 0.564 | 0.583 | 0.648 | 0.505 | 0.514 | 0.338 | 0.416 | 0.26 | 0.515 | 0.527 | 0.514 | 0.381 | 0.563 | 0.604 | 0.582 | 0.55
6 | HARA | 0.0901 | 0.133 | 0.128 | 0.0965 | 0.41 | 0.441 | 0.418 | 0.427 | 1.14 | 1.17 | 1.15 | 0.931 | 0.588 | 0.873 | 0.829 | 0.353 | 0.759 | 0.711 | 0.643 | 0.461
7 | HCC-15 | 0.457 | 0.414 | 0.409 | 0.482 | 0.554 | 0.631 | 0.574 | 0.463 | 0.624 | 0.739 | 0.613 | 0.482 | 0.702 | 0.706 | 0.688 | 0.519 | 0.288 | 0.358 | 0.406 | 0.316
8 | HCC-44 | 0.916 | 1 | 0.933 | 0.756 | 0.494 | 0.458 | 0.407 | 0.321 | 1.06 | 1.04 | 0.911 | 0.74 | 0.976 | 0.929 | 0.969 | 0.768 | 1.06 | 0.986 | 1.03 | 0.967
